Source: patent US20220378802A1, “TREATMENT OF ALCOHOLIC HEPATITIS” (Durect Corporation, priority 2019, published 2022)
“Also recorded” adds a separate entry of the source.

Columns and labels:
Type in all cases: in vivo, human
[1] = Pharmacokinetics of 25HC3S in alcoholic hepatitis patients (Phase 2a, IV infusion); settings: for PK parameters, moderate versus severe AH groups: comparison at the same dose; for half-life / clearance / Tmax / AUC(0-inf) / Cmax: human, plasma
Method: All patients received IV infused 25HC3S (at 30, 90, or 150 mg) on Day 1 and Day 4 (if still hospitalized), and were followed for 28-days. The final enrollment was 19 patients comprised of: 8 patients (4 moderate and 4 severe) dosed at 30 mg, 7 patients (3 moderate and 4 severe) dosed at 90 mg, and 4 patients (4 severe) dosed at 150 mg. • Study Drug A 25HC3S sodium salt solution contained: • 30 mg/mL 25HC3S sodium salt; • 240 mg/mL hydroxypropyl-beta-cyclodextrin; and • 50 mmole phosphate buffer • The 25HC3S sodium salt solution was diluted in 100 mL 5% dextrose or 0.9% sodium chloride infusion solution: • Dose 1: 30 mg of 25HC3S sodium salt in 100 mL 5% dextrose or 0.9% sodium chloride • Dose 2: 90 mg of 25HC3S sodium salt in 100 mL 5% dextrose or 0.9% sodium chloride • Dose 3: 150 mg of 25HC3S sodium salt in 100 mL 5% dextrose or 0.9% sodium chloride • 25HC3S sodium salt was administered by slow intravenous infusion over 2 hrs (50 mL/h) until the entire dose is given at Day 1 and Day 4. If a patient met the hospital discharge criteria prior to the second dose, the patient received only one dose instead of two doses. • Study Procedure The study was conducted in two parts. Part A included patients with MELD scores of 11-20 (moderate AH patients), and Part B included patients with MELD of scores 21-30. The doses of 25HC3S sodium salt administered were 30 mg and 90 mg for Part A and 30 mg, 90 mg and 150 mg for Part B, with 4 patients per dose group per Part (except for only 3 patients in the 90 mg cohort of Part A). All patients were followed to Day 28. • The study started in 4 moderate AH patients (Part A) at 30 mg dose level. After completing the dosing, a Dose Escalation Committee (DEC) reviewed safety, tolerability and pharmacokinetic (PK) data from all 4 patients and determined that it was safe to move forward to dose 4 severe AH patients (Part B) at the same dose level, 30 mg, as well as escalating the dose level to 90 mg in moderate patients (Part A). The same dose escalation procedure was then conducted in Part B until all 4 patients received 150 mg doses. • A flow diagram of the study is depicted in FIG. 2. Each dose cohort enrolled up to 4 subjects. Study subjects received up to 2 doses of 25HC3S sodium salt. The first dose was administered on Day 1 and, if still hospitalized, the second dose was administered on Day 4. A pharmacokinetic (PK) sample was collected at: Time 0 (pre-dose), 1 hour post-dose initiation, 2 hours (end of infusion), 3 hours post-dose initiation, 4 hours post-dose initiation, 8 hours post-dose initiation, 12 hours post-dose initiation, 24-hours post-dose initiation and 50 hours post-dose initiation. • Evaluation: Assessment of Pharmacodynamic (PD) Signals: • Change in Lille score, MELD score, biochemistry (such as bilirubin) • Method and Timing • Lille score was calculated at Day 7 • MELD score was calculated at Screening, Day 1 (pre-dose), Day 7 and Day 28 • Biochemistry and all safety lab parameters were collected at Screening, Day 1 and Day 4 at pre-dose, Day 1 and Day 4 at 12 hrs after dose completion/end of infusion, Day 2, Day 7, Day 28, and if hospitalized on Days 3, 4, 5, and 6. • Assessment of Safety Signals: • Safety was determined based on clinical and laboratory monitoring. • Assessment of PK: • Plasma concentration data of 25HC3S from each patient were used to calculate relevant PK parameters determined using a standard linear/log-trapezoidal rule non-compartmental method with an appropriate PK data analysis program. • The time points for PK sample collection were (after Dose 1 only): 0 (pre-dose), 1 hr post-dose initiation, 2 hrs (end of infusion), 3, 4, 8, 12, 24 hrs post-dose

[2] = Pharmacokinetics of 25HC3S in healthy subjects (earlier study); settings: Healthy subjects (N = 5), single dose of 150 mg
Description: The clearance of 25HC3S sodium was decreased by 80% in AH patients as compared to that in healthy subjects from an earlier study. A comparison of the pharmacokinetic parameters of 25HC3S administered to healthy subjects versus subjects with alcoholic hepatitis is summarized in the following Table. A comparison of the plasma concentration of 25HC3S administered to healthy subjects versus subjects with alcoholic hepatitis is depicted in FIG. 5.

[3] = system: patients with alcoholic hepatitis; test: Safety and tolerability in Phase 2a trial; settings: all AH patients
Method: All patients received IV infused 25HC3S (at 30, 90, or 150 mg) on Day 1 and Day 4 (if still hospitalized), and were followed for 28-days. The final enrollment was 19 patients comprised of: 8 patients (4 moderate and 4 severe) dosed at 30 mg, 7 patients (3 moderate and 4 severe) dosed at 90 mg, and 4 patients (4 severe) dosed at 150 mg. • Study Drug A 25HC3S sodium salt solution contained: • 30 mg/mL 25HC3S sodium salt; • 240 mg/mL hydroxypropyl-beta-cyclodextrin; and • 50 mmole phosphate buffer • The 25HC3S sodium salt solution was diluted in 100 mL 5% dextrose or 0.9% sodium chloride infusion solution: • Dose 1: 30 mg of 25HC3S sodium salt in 100 mL 5% dextrose or 0.9% sodium chloride • Dose 2: 90 mg of 25HC3S sodium salt in 100 mL 5% dextrose or 0.9% sodium chloride • Dose 3: 150 mg of 25HC3S sodium salt in 100 mL 5% dextrose or 0.9% sodium chloride • 25HC3S sodium salt was administered by slow intravenous infusion over 2 hrs (50 mL/h) until the entire dose is given at Day 1 and Day 4. If a patient met the hospital discharge criteria prior to the second dose, the patient received only one dose instead of two doses. • Study Procedure The study was conducted in two parts. Part A included patients with MELD scores of 11-20 (moderate AH patients), and Part B included patients with MELD of scores 21-30. The doses of 25HC3S sodium salt administered were 30 mg and 90 mg for Part A and 30 mg, 90 mg and 150 mg for Part B, with 4 patients per dose group per Part (except for only 3 patients in the 90 mg cohort of Part A). All patients were followed to Day 28. • The study started in 4 moderate AH patients (Part A) at 30 mg dose level. After completing the dosing, a Dose Escalation Committee (DEC) reviewed safety, tolerability and pharmacokinetic (PK) data from all 4 patients and determined that it was safe to move forward to dose 4 severe AH patients (Part B) at the same dose level, 30 mg, as well as escalating the dose level to 90 mg in moderate patients (Part A). […]

[4] = AH vs healthy subjects, 150 mg, ↑
[5] = AH vs healthy subjects, 150 mg, ↓
[6] = iv, 30 mg, Moderate AH, cohort 1A, 30 mg IV infusion, N=3
[7] = iv, 30 mg, Severe AH, cohort 1B, 30 mg IV infusion, N=4
[8] = iv, 90 mg, Moderate AH, cohort 2A, 90 mg IV infusion, N=3
[9] = iv, 90 mg, Severe AH, cohort 2B, 90 mg IV infusion, N=4
[10] = iv, 150 mg, Severe AH, cohort 3B, 150 mg IV infusion, N=4
[11] = same dose level, single dose of 150 mg

In the case of `C[C@H](CCCC(C)(C)O)[C@H]1CC[C@H]2[C@@H]3CC=C4C[C@@H](OS(=O)(=O)O)CC[C@]4(C)[C@H]3CC[C@]12C` [25HC3S, 5-cholesten-3,25-diol, 3-sulfate], the “drug exposure (AUC and Cmax) versus dose” value ([1]; AH patients, 30, 90, 150 mg) is reported as “dose proportional”, the “Time to maximum drug concentrations (Tmax)” value ([1]; AH patients, 2 hour IV infusion) is reported as “at the end of 2 hour infusion” and the “Fold Change in PK: AUCinf” value [1, 4] is reported as “↑ ~5×”. The “Fold Change in PK: Cmax” value [1, 4] was “↑ 2×”, the “Fold Change in PK: T½” value [1, 4] was “↑ 2×” and the “Fold Change in PK: CL” value [1, 5] was “↓ 0.25×”. For the same compound, the “Fold Change in PK: V” value [1, 5] was “↓ 0.5×”, the V ([1]; Moderate AH, cohort 1A, 30 mg IV infusion, N=3) was 24.8 (1.6) L and the V ([1]; Moderate AH, cohort 2A, 90 mg IV infusion, N=3) was 25.8 (10.5) L. For the same compound, the V ([1]; Severe AH, cohort 1B, 30 mg IV infusion, N=4) was 26.1 (4.9) L, the V ([1]; Severe AH, cohort 2B, 90 mg IV infusion, N=4) was 35.3 (10.8) L and the V ([1]; Severe AH, cohort 3B, 150 mg IV infusion, N=4) was 27.8 (5.9) L. The “PK parameters, moderate versus severe AH groups” value [1] was “uninfluenced by the severity of the disease; also recorded: similar”, the “PK parameters, moderate versus severe AH groups” value ([1]; listed as 25HC3S sodium) was “similar” and the “systemic clearance, fold lower in AH patients compared to healthy subjects” value ([1]; for a given dose) was “about 5 fold”. The “decrease of clearance in AH patients compared to healthy subjects” value ([1]; healthy subjects from an earlier study) was 80%, the half-life ([1]; intravenous, AH patients, range over groups, read-out: half-life (t1/2)) was 4 to 6 h and the clearance ([1]; intravenous, AH patients, read-out: Mean clearance) was 83.3 to 117 mL/min. The Tmax ([1]; iv, 30 mg, Moderate AH, cohort 1A, 30 mg IV infusion over 2 h, after Dose 1, N=3) was 2.2 h, the AUC(0-inf) [1, 6] was 6540 ng·h/mL and the Cmax [1, 6] was 1280 ng/mL. For the same compound, the clearance ([1]; iv, 30 mg, Moderate AH, cohort 1A, 30 mg IV infusion, N=3, read-out: CL (converted)) was 98.3 mL/min, the half-life ([1]; iv, 30 mg, Moderate AH, cohort 1A, 30 mg IV infusion, N=3, read-out: T½ (converted)) was 3.7 h and the AUC(0-inf) [1, 7] was 7720 ng·h/mL. The Cmax [1, 7] was 1340 ng/mL, the Tmax [1, 7] was 1.8 h and the clearance ([1]; iv, 30 mg, Severe AH, cohort 1B, 30 mg IV infusion, N=4, read-out: CL (converted)) was 68.3 mL/min. It also gave a half-life ([1]; iv, 30 mg, Severe AH, cohort 1B, 30 mg IV infusion, N=4, read-out: T½ (converted)) of 1.8 h, an AUC(0-inf) [1, 8] of 14300 ng·h/mL and a Cmax [1, 8] of 3630 ng/mL. The Tmax [1, 8] was 2 h, the clearance ([1]; iv, 90 mg, Moderate AH, cohort 2A, 90 mg IV infusion, N=3, read-out: CL (converted)) was 110 mL/min and the half-life ([1]; iv, 90 mg, Moderate AH, cohort 2A, 90 mg IV infusion, N=3, read-out: T½ (converted)) was 2.7 h. The AUC(0-inf) [1, 9] was 20400 ng·h/mL, the Cmax [1, 9] was 3290 ng/mL and the Tmax [1, 9] was 2.3 h. The clearance ([1]; iv, 90 mg, Severe AH, cohort 2B, 90 mg IV infusion, N=4, read-out: CL (converted)) was 91.7 mL/min, the half-life ([1]; iv, 90 mg, Severe AH, cohort 2B, 90 mg IV infusion, N=4, read-out: T½ (converted)) was 5.1 h and the AUC(0-inf) [1, 10] was 27100 ng·h/mL. It also gave a Cmax [1, 10] of 6820 ng/mL, a Tmax [1, 10] of 2.1 h and a clearance ([1]; iv, 150 mg, Severe AH, cohort 3B, 150 mg IV infusion, N=4, read-out: CL (converted)) of 96.7 mL/min. For the same compound, the half-life ([1]; iv, 150 mg, Severe AH, cohort 3B, 150 mg IV infusion, N=4, read-out: T½ (converted)) was 3.4 h, the “increase in AUC in AH patients compared to healthy subjects” value [1, 11] was “about 5 fold” and the “increase in Cmax in AH patients compared to healthy subjects” value [1, 11] was 2 fold. The V [2] was 55.0 (4.3) L, the AUC(0-inf) ([2]; human, plasma) was 6190 ng·h/mL and the Cmax ([2]; human, plasma) was 3100 ng/mL. The clearance ([2]; human, plasma) was 408 mL/min, the half-life ([2]; human, plasma, read-out: T½ (converted)) was 1.6 h and the safety / tolerability ([3]; 30, 90, 150 mg) was “safe and well tolerated”. For the same compound, the serious adverse events ([3]; 30, 90, 150 mg) was “no drug-related serious adverse events; also recorded: no treatment emergent serious adverse events; also recorded: no serious adverse effects related to 25HC3S” and the “discontinuations, early withdrawal or termination due to adverse effects” value [3] was “no discontinuations, early withdrawal or termination”.
